Results from publication PMC5926251 (Japanese Journal of Cancer Research : Gann, 2000).
pIC50: −log10 of the molar value. Where “and” joins values, the source holds several entries; their conditions need not be identical. Equal values may be shown once. Read-outs that look alike come from different tables or passages of the source.

Experiments:
DNA polymerase β = DNA polymerase β (Rattus norvegicus, UniProt P06766); assay: DNA polymerase assay, pol. β; type: biochemical
DNA polymerase α = target: T1, DNA polymerase α (Bos taurus, UniProt A0AAA9TD94); assay: DNA polymerase assay, pol. α; type: biochemical, calf; settings: Table I; for pIC50: 50%-inhibitory concentration; for MIC Pol. α: Minimum inhibitory concentration: dose that resulted in inhibition of 80% or more of the activity
T1 sequence (A0AAA9TD94 1-1441): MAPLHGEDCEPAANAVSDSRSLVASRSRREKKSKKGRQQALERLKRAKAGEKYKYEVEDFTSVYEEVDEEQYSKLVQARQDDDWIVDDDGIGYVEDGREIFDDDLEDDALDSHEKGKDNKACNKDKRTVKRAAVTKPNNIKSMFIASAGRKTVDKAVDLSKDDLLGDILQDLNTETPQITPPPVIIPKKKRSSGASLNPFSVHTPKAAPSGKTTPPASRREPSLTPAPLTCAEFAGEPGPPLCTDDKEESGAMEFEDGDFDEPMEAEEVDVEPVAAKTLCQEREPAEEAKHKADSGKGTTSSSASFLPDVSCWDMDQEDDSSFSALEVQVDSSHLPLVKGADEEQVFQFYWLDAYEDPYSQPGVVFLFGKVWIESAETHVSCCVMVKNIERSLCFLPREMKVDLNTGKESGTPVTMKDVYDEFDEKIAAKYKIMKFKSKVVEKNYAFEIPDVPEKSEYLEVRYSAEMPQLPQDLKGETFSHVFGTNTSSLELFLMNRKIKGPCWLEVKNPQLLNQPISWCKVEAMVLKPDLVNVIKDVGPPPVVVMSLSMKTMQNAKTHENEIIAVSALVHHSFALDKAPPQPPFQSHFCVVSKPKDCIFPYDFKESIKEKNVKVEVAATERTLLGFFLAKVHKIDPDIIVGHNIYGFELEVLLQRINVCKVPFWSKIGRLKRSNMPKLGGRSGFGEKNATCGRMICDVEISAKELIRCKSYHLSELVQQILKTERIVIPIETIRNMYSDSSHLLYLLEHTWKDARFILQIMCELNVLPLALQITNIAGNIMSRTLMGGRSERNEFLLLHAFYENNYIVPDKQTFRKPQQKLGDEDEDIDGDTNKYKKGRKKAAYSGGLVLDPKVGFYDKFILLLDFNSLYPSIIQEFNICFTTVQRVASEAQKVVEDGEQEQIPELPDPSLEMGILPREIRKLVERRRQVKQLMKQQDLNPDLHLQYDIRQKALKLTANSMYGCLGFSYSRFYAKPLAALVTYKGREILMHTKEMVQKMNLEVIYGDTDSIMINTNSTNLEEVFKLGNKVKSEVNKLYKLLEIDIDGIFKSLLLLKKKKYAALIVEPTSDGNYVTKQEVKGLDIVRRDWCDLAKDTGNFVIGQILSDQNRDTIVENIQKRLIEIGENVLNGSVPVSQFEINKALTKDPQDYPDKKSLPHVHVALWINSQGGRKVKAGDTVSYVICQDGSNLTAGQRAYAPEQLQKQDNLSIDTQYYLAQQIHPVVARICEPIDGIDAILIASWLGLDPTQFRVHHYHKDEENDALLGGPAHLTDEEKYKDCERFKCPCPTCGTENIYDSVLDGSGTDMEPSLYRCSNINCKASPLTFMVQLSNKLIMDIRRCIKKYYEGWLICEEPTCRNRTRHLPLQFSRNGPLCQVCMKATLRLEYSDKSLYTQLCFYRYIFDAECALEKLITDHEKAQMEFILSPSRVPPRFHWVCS

[1] = read-out: IC50 Pol. β, 50%-inhibitory concentration, Table I

pIC50 (DNA polymerase β; [1])	MIC Pol. β (DNA polymerase β; Minimum inhibitory concentration: dose that resulted in inhibition of 80% or more of the activity, Table I)	SMILES	pIC50 (DNA polymerase α; read-out: IC50 Pol. α)	MIC Pol. α (DNA polymerase α)	pIC50 (DNA polymerase β)	pIC50 (DNA polymerase α; IC50 Pol. α)
< 3.00		CCCCCCCCCCCCCC(=O)OCC(CO)OC(=O)CCCCCCCCCCCCC (stereo not shown)	3.26	> 1000 µM		
		C[C@H]1OC(O)[C@H](O)[C@@H](O)[C@@H]1O (stereo partly shown) [II - Quinovose - -, Quinovose]			< 3.00	< 3.00
< 3.00		C[C@@H]1OC(O)[C@H](O)[C@H](O)[C@H]1O (stereo partly shown) [II - Rhamnose - -, Rhamnose]	< 3.00			
< 3.00		CCCCCCCCCCCCCC(=O)OCC(O)CO (stereo not shown) [III&IV - - + Myristic acid (14:0)/H]	3.12	> 1000 µM		
< 3.00		CCCCCCCCCCCCCCCCCC(=O)OCC(O)CO (stereo not shown) [III&IV - - + Stearic acid (18:0)/H]	3.19	> 1000 µM		
4.60	45 µM and 46 µM	CCCCCCCCCCCCCCCC(=O)OC[C@H](CO[C@H]1O[C@H](CS(=O)(=O)O)[C@@H](O)[C@H](O)[C@H]1O)OC(=O)CCCCCCCCCCCCCCC [C16--SQDG]		3.4 µM and 3.6 µM		
< 3.00		CCCCCCCCCCCCCCCC(=O)OCC(CO)OC(=O)CCCCCCCCCCCCCCC (stereo not shown)	3.33	> 1000 µM		
< 3.00		C[C@@H]1OC(OCC(O)CO)[C@@H](O)[C@H](O)[C@@H]1O (stereo partly shown) [II&III - Fucose + -]	< 3.00			

SMILES	pIC50 (DNA polymerase β; [1])	MIC Pol. β (DNA polymerase β; Minimum inhibitory concentration: dose that resulted in inhibition of 80% or more of the activity, Table I)	pIC50 (DNA polymerase α; read-out: IC50 Pol. α)	MIC Pol. α (DNA polymerase α)	pIC50 (DNA polymerase β)	pIC50 (DNA polymerase α; IC50 Pol. α)
C[C@@H]1OC(OCC(O)CO)[C@H](O)[C@H](O)[C@H]1O (stereo partly shown) [II&III - Rhamnose + -]	< 3.00		< 3.00			
O=S(=O)(O)C[C@@H]1OC(OCC(O)CO)[C@@H](O)[C@H](O)[C@@H]1O (stereo partly shown) [I&II&III + Fucose + -]	< 3.00		< 3.00			
